Consider 4 compounds from US20260139005A1 (priority 2022, published 2026).

For one assay, the system named is Botrytis cinerea. Kind of assay: MIC of NCR13 and alanine scanning variants, 96-well plate / resazurin assay. In kind it is cell-based. The note with it: 48 h. As to the method: Antifungal activity of NCR13_AlaV1-V5 was assessed at different concentrations using a 2-fold dilution series of each peptide. Antifungal activity of each peptide was determined spectrophotometrically using the 96-well plate assay. Around 45 μL of each peptide at different concentrations was added to each well of the microtiter plate containing 45 μL of ˜[…] spore suspension. The quantitative fungal growth inhibition was determined by measuring the absorbance at 595 nm using a (Tecan Infinite M200 ProTecan Systems Inc., San Jose, CA) microplate reader after 48 h. The fungal cell viability was determined by the resazurin cell viability assay. After incubation of the pathogen/peptide mixture for 48 h, 10 μl of 0.1% resazurin solution was added to each well. After incubation of the mixture overnight, a change in the color of the resazurin dye from blue to pink or colorless indicated the presence of live fungal cells. The MIC for each peptide was the lowest concentration of each peptide at which no change in blue color occurred.

Another assay concerns Botrytis cinerea T-4. As to the kind of experiment: MIC determination, 96-well plate assay with resazurin cell viability readout. In kind it is cell-based. As for the experimental part: The fungal strain of Botrytis cinerea T-4 was cultured on V8 agar plates. Fungal spores were harvested by flooding the fungal growth plates with sterile water. The spore suspension was filtered through two layers of Miracloth, centrifuged at 13,600 rpm for 1 min, washed, and re-suspended in low-salt Synthetic Fungal Medium (SFM) (U.S. Pat. No. 6,316,407, incorporated herein by reference in its entirety). The spore suspension was adjusted to the desired spore count using a hemocytometer.
Antifungal activity of NCR13_V7 (SEQ ID NO: 9) and NCR13_V9 (SEQ ID NO: 11) was assessed at different concentrations using a 2-fold dilution series of each peptide. Antifungal activity of each peptide was determined spectrophotometrically using the 96-well plate assay (Kereszt et al., Front. Plant Sci. 9, 1026 (2018)). Around 45 μL of each peptide at different concentrations was added to each well of the microtiter plate containing 45 μL of ˜10^5 spores/ml spore suspension. The quantitative fungal growth inhibition was determined by measuring the absorbance at 595 nm using a (Tecan Infinite M200 ProTecan Systems Inc., San Jose, CA) microplate reader after 48 h. The fungal cell viability was determined by the resazurin cell viability assay (Tiricz et al., Appl. Environ. Microbiol. 79, 6737-6746 (2013);. Balogh et al., Acta Microbiol. Immunol. Hung. 61, 229-239 (2014)). […]
In general terms: Alamar Blue is a resazurin reagent that responds to reducing activity.

The test system of a further assay is B. cinerea. As to the kind of experiment: Semi-in planta drop-inoculation antifungal assay on detached N. benthamiana leaves (gray mold). In kind it is in vivo, Botrytis cinerea on Nicotiana benthamiana. Particulars: B. cinerea spores, peptide 0.75, 1.5, 3 and 6 μM, 48 h.

Where a SMILES comes first, the peptide text is derived from it.

In the case of `CC[C@H](C)[C@H](NC(=O)[C@H](CS)NC(=O)[C@H](C)NC(=O)[C@H](C)NC(=O)[C@H](C)NC(=O)[C@H](CCCCN)NC(=O)[C@@H]1CCCN1C(=O)[C@H](CCCCN)NC(=O)[C@H](CCCNC(=N)N)NC(=O)[C@H](CS)NC(=O)[C@H](C)NC(=O)[C@H](Cc1ccccc1)NC(=O)[C@H](CCCCN)NC(=O)[C@H](CCCCN)NC(=O)[C@H](CS)NC(=O)[C@H](CC(=O)O)NC(=O)[C@H](CCCCN)NC(=O)[C@H](CC(=O)O)NC(=O)[C@H](CO)NC(=O)[C@H](CCC(N)=O)NC(=O)[C@H](CS)NC(=O)[C@@H]1CCCN1C(=O)[C@H](CCCCN)NC(=O)[C@@H](N)[C@@H](C)O)C(=O)N[C@@H](CC(N)=O)C(=O)NCC(=O)N[C@@H](Cc1ccccc1)C(=O)N[C@@H](CS)C(=O)N[C@@H](CCCCN)C(=O)N[C@@H](CS)C(=O)N[C@H](C(=O)N[C@@H](CCCNC(=N)N)C(=O)O)C(C)C` [NCR13_AlaV4] (H-TKPCQSDKDCKKFACRKPKAAACINGFCKCVR-OH; N-terminus and C-terminus assumed), in the assay with Botrytis cinerea, the “MIC (μM) Botrytis cinerea” value is listed as “Inactive”.

`N=C(N)NCCC[C@H](NC(=O)[C@H](CS)NC(=O)[C@H](Cc1c[nH]c2ccccc12)NC(=O)[C@H](Cc1ccccc1)NC(=O)[C@H](CCCCN)NC(=O)[C@@H](N)CCCCN)C(=O)N[C@@H](CCCCN)C(=O)N1CCC[C@H]1C(=O)N[C@@H](CCCCN)C(=O)N[C@@H](Cc1c[nH]c2ccccc12)C(=O)N1CCC[C@H]1C(=O)N[C@@H](CCCCN)C(=O)N[C@@H](CS)C(N)=O` [NCR13_V9, KKFWCRKPKWPKC-NH2] (H-KKFWCRKPKWPKC-NH2; N-terminus assumed): in the assay on Botrytis cinerea T-4 (B. cinerea in SFM), the “fold higher antifungal activity than NCR13_V7” value is 2 fold. Further, the “MIC (μM) in SFM” value in the assay with Botrytis cinerea T-4 (B. cinerea, low-salt Synthetic Fungal Medium (SFM), 48 h) was found to be 1.5 µM. The “reduction of lesion size” value in the assay on B. cinerea is listed as “reduced the lesion sizes greater than NCR13_V7”.

Regarding “TKPCQSDKDCAAAACRKPKVPKCINGFCKCVR [NCR13_AlaV2]”, the “MIC (μM) Botrytis cinerea” value in the assay on Botrytis cinerea is “Inactive”.

Take “TKPCQSDKDCKKFACAAAAVPKCINGFCKCVR [NCR13_AlaV3]”: the “MIC (μM) Botrytis cinerea” value with Botrytis cinerea is on record as “Inactive”.
